Assay results published in the Kinase Knowledgebase extract (Sharma et al. 2016).

Target: CDK2 (human) (UniProt P24941)
Assay: Enzyme Assay

Question: Which Ki does the source give for `COc1ccc(Nc2nccc(-c3sc(=O)n(C)c3C)n2)cc1` here?
Answer: 700 nM

Question: With `Cc1c(Nc2nccc(-c3sc(=O)n(C)c3C)n2)cccc1NS(C)(=O)=O` as the compound, how does the Ki read?
Answer: 190 nM

Question: Which Ki does the source give for `COc1ccccc1Nc1nccc(-c2sc(=O)n(C)c2C)n1` here?
Answer: 2470 nM

Question: Which Ki does the source give for `Cc1cc(F)ccc1Nc1nccc(-c2sc(=O)n(C)c2C)n1` here?
Answer: 490 nM

Question: How did the Ki turn out when `Cc1c(-c2ccnc(Nc3cccc(NS(C)(=O)=O)c3)n2)sc(=O)n1C` was run?
Answer: 30 nM

Question: Which Ki does the source give for `CCc1ccccc1Nc1nccc(-c2sc(=O)n(C)c2C)n1` here?
Answer: 1230 nM

Question: For `COc1cc(Cl)ccc1Nc1nccc(-c2sc(=O)n(C)c2C)n1`, which Ki is on record?
Answer: 2230 nM

Question: `CCc1ccc(Nc2nccc(-c3sc(=O)n(C)c3C)n2)cc1` was tested. Which Ki did it give?
Answer: 50 nM

Question: `Cc1ccc(Nc2nccc(-c3sc(=O)n(C)c3C)n2)cc1` was tested. Which Ki did it give?
Answer: 40 nM

Question: Which Ki does the source give for `COc1cccc(Nc2nccc(-c3sc(=O)n(C)c3C)n2)c1` here?
Answer: 70 nM

Question: `Cc1c(-c2ccnc(Nc3ccccc3)n2)sc(=O)n1C` was tested. Which Ki did it give?
Answer: 40 nM

Question: `CC(=O)c1cccc(Nc2nccc(-c3sc(=O)n(C)c3C)n2)c1` was tested. Which Ki did it give?
Answer: 20 nM

Question: For `Cc1cccc(Nc2nccc(-c3sc(=O)n(C)c3C)n2)c1`, which Ki is on record?
Answer: 20 nM

Question: How did the Ki turn out when `CCOc1ccccc1Nc1nccc(-c2sc(=O)n(C)c2C)n1` was run?
Answer: > 10000 nM

Question: How did the Ki turn out when `Cc1c(-c2ccnc(Nc3ccccc3OC(F)F)n2)sc(=O)n1C` was run?
Answer: 5360 nM

Question: How did the Ki turn out when `COc1ccc(Nc2nccc(-c3sc(=O)n(C)c3C)n2)c(OC)c1` was run?
Answer: > 10000 nM

Question: `Cc1ccccc1Nc1nccc(-c2sc(=O)n(C)c2C)n1` was tested. Which Ki did it give?
Answer: 460 nM

Question: How did the Ki turn out when `Cc1c(-c2ccnc(Nc3ccccc3C(F)(F)F)n2)sc(=O)n1C` was run?
Answer: > 10000 nM
